Read-outs that look alike come from different tables or passages of the source.
Tests used:
[1] = system: M. tuberculosis; assay type: in vivo, BALB/c mice
[2] = biological target: T1, LdtMt2 (Mycobacterium tuberculosis, UniProt I6Y9J2); assay: biochemical; parameters: species or system M. tuberculosis
[3] = biological target: T1, LdtMt2; assay type: binding, M. tuberculosis; conditions: UPLC-MS
[4] = biological target: T2, human DHP-1 (Homo sapiens, UniProt P16444); conditions: cited from earlier work
T2 sequence (P16444 17-385): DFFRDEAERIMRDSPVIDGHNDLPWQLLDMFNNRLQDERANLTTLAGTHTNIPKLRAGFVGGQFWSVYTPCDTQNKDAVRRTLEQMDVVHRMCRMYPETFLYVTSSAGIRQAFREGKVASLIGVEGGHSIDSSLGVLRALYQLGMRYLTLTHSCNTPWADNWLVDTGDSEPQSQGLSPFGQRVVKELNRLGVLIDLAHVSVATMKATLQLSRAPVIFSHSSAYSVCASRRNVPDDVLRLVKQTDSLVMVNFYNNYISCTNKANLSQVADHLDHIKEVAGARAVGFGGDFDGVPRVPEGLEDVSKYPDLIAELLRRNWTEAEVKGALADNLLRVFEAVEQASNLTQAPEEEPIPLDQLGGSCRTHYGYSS

[5] = system: M. tuberculosis; conditions: oral gavage; recent report; cited from earlier work
[6] = system: M. tuberculosis; conditions: mouse, in vivo; cited from earlier work
[7] = biological target: LdtMab2, wild-type (MAB_1530, orthologue of LdtMt2; fragment without putative transmembrane domain) (Mycobacteroides abscessus, UniProt B1MMQ4); assay: biochemical; assay type: binding, Mycobacterium abscessus; conditions: Figure 6; ITC, wt, protein 150 μM, ligand 2 mM, pH 8.0, 24° C.
[8] = biological target: LdtMab1, wild-type (MAB_3165c, orthologue of LdtMt1) (Mycobacteroides abscessus, UniProt B1MDC1); assay: biochemical; assay type: binding, Mycobacterium abscessus; conditions: Figure 6; ITC, wt, protein 150 μM, ligand 2 mM, pH 8.0, 24° C.
[9] = 10 μM LdtMt2, MES pH 6.5, 10° C.

T1 sequence (I6Y9J2 56-408 limits assumed): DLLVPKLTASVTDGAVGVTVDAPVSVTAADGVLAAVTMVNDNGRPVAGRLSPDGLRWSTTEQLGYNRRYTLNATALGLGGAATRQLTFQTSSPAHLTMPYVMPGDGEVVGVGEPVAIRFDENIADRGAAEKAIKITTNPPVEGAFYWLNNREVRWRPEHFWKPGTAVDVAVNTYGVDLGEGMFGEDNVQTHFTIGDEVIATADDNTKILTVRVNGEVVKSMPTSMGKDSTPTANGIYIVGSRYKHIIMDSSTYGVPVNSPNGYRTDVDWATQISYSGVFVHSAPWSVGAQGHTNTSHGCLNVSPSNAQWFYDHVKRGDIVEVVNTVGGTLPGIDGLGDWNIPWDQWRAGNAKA
Chain of LdtMab1, wild-type (MAB_3165c, orthologue of LdtMt1) (B1MDC1 21-248): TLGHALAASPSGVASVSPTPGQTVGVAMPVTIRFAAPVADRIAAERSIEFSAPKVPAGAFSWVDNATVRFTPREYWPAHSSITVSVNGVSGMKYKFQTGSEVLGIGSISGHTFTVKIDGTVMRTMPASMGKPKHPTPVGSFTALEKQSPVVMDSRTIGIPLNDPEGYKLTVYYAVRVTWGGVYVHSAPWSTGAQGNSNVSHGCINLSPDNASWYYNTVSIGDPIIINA
Chain of LdtMab2, wild-type (MAB_1530, orthologue of LdtMt2; fragment without putative transmembrane domain) (B1MMQ4 32-406): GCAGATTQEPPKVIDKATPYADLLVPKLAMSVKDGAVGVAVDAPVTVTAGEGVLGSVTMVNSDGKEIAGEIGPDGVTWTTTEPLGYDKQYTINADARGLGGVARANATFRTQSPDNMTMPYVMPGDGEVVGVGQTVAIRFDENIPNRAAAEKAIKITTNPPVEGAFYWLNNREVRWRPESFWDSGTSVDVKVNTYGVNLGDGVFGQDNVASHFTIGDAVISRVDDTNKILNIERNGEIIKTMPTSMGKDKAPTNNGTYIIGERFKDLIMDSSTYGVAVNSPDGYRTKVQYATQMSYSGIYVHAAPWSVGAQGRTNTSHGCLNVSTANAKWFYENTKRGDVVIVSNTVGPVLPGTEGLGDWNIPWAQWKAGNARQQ

C[C@@H](O)[C@H]1C(=O)N2C(C(=O)[O-])=C(SC3Cn4cnc[n+]4C3)[C@H](C)[C@H]12 (stereo partly shown) [biapenem]
gross pathology of lungs (tuberculous lesions) ([1]; mouse, in vivo): no tuberculous lesions | M. tuberculosis burden in the lungs ([1]; three weeks of treatment): no less effective than rifampicin | bactericidal activity in vivo ([1]; three weeks of treatment): lacked bactericidal activity | Kapp [2, 9]: 15.3 ± 2.5 µM | kinact ([2]; 10 μM LdtMt2, MES pH 6.5, 10° C., read-out: kinact (converted)): 0.06 s⁻¹ | kinact/KI ([2]; read-out: kinact/Kapp ratio): 3830 M⁻¹ s⁻¹ | mass of stable adduct with wild-type LdtMt2 [3]: +138 Da | metabolism by human DHP-1 [4]: not readily metabolized

Cc1oc(=O)oc1COC(=O)C1=C([C@H]2CCCO2)S[C@@H]2[C@@H]([C@@H](C)O)C(=O)N12 [faropenem medoxomil]
M. tuberculosis burden in the lungs [5]: ineffective

C[C@@H](O)[C@H]1C(=O)N2C(C(=O)O)=C(S[C@@H]3CN[C@H](C(=O)N(C)C)C3)[C@H](C)[C@H]12 [meropenem]
activity in macrophages and mice infected with M. tuberculosis [6]: limited activity

C[C@@H](O)[C@H]1C(=O)N2C(C(=O)O)=C(SC3CN(C4=NCCS4)C3)[C@H](C)[C@H]12 [tebipenem]
Kapp [2, 9]: 38.4 ± 9.7 µM | Kd [7]: 6.1 µM | Kd [8]: 0.82 µM

— patent US10695322B2 (priority 2016, dated 2020)
